Measurements: patent US10154988B2, “Methods and compositions for treating schizophrenia” (The Johns Hopkins University, priority 2012, dated 2018)
Entries after “also recorded” stand apart in the source; their conditions may differ.

Tested on: somatostatin in DG hilus
Assay: somatostatin immunohistochemistry, SOM-immunoreactive hilar neuron counts after 4-week levetiracetam
Format: in vivo, rat
Conditions: 10 mg/kg/day, osmotic minipumps, four weeks; AI-LEV vs Y p=0.679, AI-LEV vs AI-VEH p<0.01
Description: Under isoflurane anesthesia, memory-impaired aged rats are implanted subcutaneously in the intrascapular region with osmotic mini-pumps (ALZET,
Durect Corporation, Cupertino, Calif.) with levetiracetam (10 mg/kg/day) or saline vehicle for four weeks prior to perfusion. Young rats, which served as controls, receive either saline vehicle in mini-pumps or no implantation.
At the end of the 4-week treatment period, rats are anesthetized with isoflurane and perfused transcardiacally with 0.1 M phosphate buffer saline, followed by 4% paraformaldehyde in phosphate buffer. Brains are removed and post-fixed in paraformaldehyde overnight. […]
Tissue is labeled with anti-SOM antiserum (Santa Cruz Biotechnology; cat. no. SC7819-P) using an established immunoperoxidase protocol and tissue sections are processed concurrently to minimize inter-replication variability (Haberman et al., 2009). […] The secondary antibody is detected with avidin-biotin complex (ABC Elite; Vector Laboratories Inc., Burlingame, Calif.) and the avidin-biotin complex is visualized with nickel-enhanced diaminobenzadine (Vector Laboratories Inc., Burlingame, Calif.). […]
Interneuron quantification is performed using a Zeiss Axioplan 2 microscope equipped with a motorized stage. […] Neuron counts are analyzed as the total number of hilar interneurons per hippocampal section for each rat.

## CC[C@@H](C(N)=O)N1CCCC1=O [levetiracetam, (2S)-2-(2-oxopyrrolidin-1-yl) butanamide]
  levels of somatostatin in DG hilus (SOM-immunoreactive hilar neurons): restores the levels of somatostatin; also recorded: restores sematostatin in DG hilus
